Assay results from ChEMBL document CHEMBL4715750, “Synthesis and in vitro, ex-vivo and in vivo activity of hybrid compounds linking a potent ROS and RNS scavenger activity with diverse substrates addressed to pass across the blood-brain barrier” (Eur J Med Chem, 2016).
Activity calls are given as the source filed them. No cut-off for these calls is given here.

Assays:
[1] = Antioxidant activity assessed as DPPH radical scavenging activity incubated for 60 mins in absence of light; type: functional
SH-SY5Y [2] = experiment: Antioxidant activity in human SH-SY5Y cells assessed as inhibition of H2O2-induced DCFH oxidation measured after 1 hr by DCFH-DA dye based fluorescence assay; type: functional, cell-based
[3] = Cytotoxicity against human SH-SY5Y cells assessed as cell viability at 100 uM measured after 2 hrs by MTT assay relative to control; type: cell-based; settings: read-out: Activity
[4] = Cytotoxicity against human SH-SY5Y cells assessed as cell viability at 50 uM measured after 2 hrs by MTT assay relative to control; type: cell-based; settings: read-out: Activity
[5] = Cytotoxicity against human SH-SY5Y cells assessed as cell viability at 25 uM measured after 2 hrs by MTT assay relative to control; type: cell-based; settings: read-out: Activity
[6] = Cytotoxicity against human SH-SY5Y cells assessed as cell viability at 12.5 uM measured after 2 hrs by MTT assay relative to control; type: cell-based; settings: read-out: Activity
[7] = Cytotoxicity against human SH-SY5Y cells assessed as cell viability at 6.3 uM measured after 2 hrs by MTT assay relative to control; type: cell-based; settings: read-out: Activity
[8] = Cytotoxicity against human SH-SY5Y cells assessed as cell viability at 3.1 uM measured after 2 hrs by MTT assay relative to control; type: cell-based; settings: read-out: Activity
[9] = Cytotoxicity against human SH-SY5Y cells assessed as cell viability at 1.6 uM measured after 2 hrs by MTT assay relative to control; type: cell-based; settings: read-out: Activity
[10] = Cytotoxicity against human SH-SY5Y cells assessed as cell viability at 0.8 uM measured after 2 hrs by MTT assay relative to control; type: cell-based; settings: read-out: Activity
[11] = Cytotoxicity against human SH-SY5Y cells assessed as cell viability at 100 uM measured after 24 hrs by MTT assay relative to control; type: cell-based; settings: read-out: Activity
[12] = Cytotoxicity against human SH-SY5Y cells assessed as cell viability at 50 uM measured after 24 hrs by MTT assay relative to control; type: cell-based; settings: read-out: Activity
[13] = Cytotoxicity against human SH-SY5Y cells assessed as cell viability at 25 uM measured after 24 hrs by MTT assay relative to control; type: cell-based; settings: read-out: Activity
[14] = Cytotoxicity against human SH-SY5Y cells assessed as cell viability at 12.5 uM measured after 24 hrs by MTT assay relative to control; type: cell-based; settings: read-out: Activity
[15] = Cytotoxicity against human SH-SY5Y cells assessed as cell viability at 6.3 uM measured after 24 hrs by MTT assay relative to control; type: cell-based; settings: read-out: Activity
[16] = Cytotoxicity against human SH-SY5Y cells assessed as cell viability at 3.1 uM measured after 24 hrs by MTT assay relative to control; type: cell-based; settings: read-out: Activity
[17] = Cytotoxicity against human SH-SY5Y cells assessed as cell viability at 1.6 uM measured after 24 hrs by MTT assay relative to control; type: cell-based; settings: read-out: Activity
[18] = Cytotoxicity against human SH-SY5Y cells assessed as cell viability at 0.8 uM measured after 24 hrs by MTT assay relative to control; type: cell-based; settings: read-out: Activity
[19] = Permeability of the compound at pH 7.4 by PAMPA-BBB assay; type: ADME; settings: read-out: permeability
SH-SY5Y [20] = experiment: Cytoprotective activity against DMSO-induced toxicity in human SH-SY5Y cells; type: functional, cell-based

SMILES	IC50 [1] [µM]	IC50 (SH-SY5Y [2]) [µM]	Papp [19] [×10⁻⁶ cm/s]	Activity (SH-SY5Y [2])	viability at 2 h, 100 µM [3] [%]	viability at 2 h, 50 µM [4] [%]	viability at 2 h, 25 µM [5] [%]	viability at 2 h, 12.5 µM [6] [%]	viability at 2 h, 6.3 µM [7] [%]	viability at 2 h, 3.1 µM [8] [%]	viability at 2 h, 1.6 µM [9] [%]	viability at 2 h, 0.8 µM [10] [%]	viability at 24 h, 100 µM [11] [%]	viability at 24 h, 50 µM [12] [%]	viability at 24 h, 25 µM [13] [%]	viability at 24 h, 12.5 µM [14] [%]	viability at 24 h, 6.3 µM [15] [%]	viability at 24 h, 3.1 µM [16] [%]	viability at 24 h, 1.6 µM [17] [%]	viability at 24 h, 0.8 µM [18] [%]	other results
COc1cc2c(cc1O)CCC(C)(CC(=O)N[C@H](C(=O)O)C(C)C)O2 (some centres undefined)	17.3	43.8	0.03	Dose-dependent effect	85.9	100	96.6	96.4	99.7	98	92.6	93.3	61	79.3	76.1	82.6	82	79.1	82.1	75.7	–
COc1cc2c(cc1O)CCC(C)(CCNC(=O)/C=C(C)/C=C/C=C(C)/C=C/C1=C(C)CCCC1(C)C)O2 (centres undefined)	16.2	> 300	–	Dose-dependent effect	57.7	97.4	100	100	90.5	97.3	93.6	87.4	47.9	91.7	91.2	100	100	100	99.1	89.6	–
COc1cc2c(cc1O)CCC(C)(CC(=O)N[C@@H](C)C(=O)O)O2 (some centres undefined)	14.7	92.6	0.06	Dose-dependent effect	70.1	86.6	89.5	85	86.4	79.5	86.9	87.6	68.5	100	100	100	94.6	100	100	100	Activity (SH-SY5Y [20]): Active

Molecules with a lower IC50 [1], results first:

IC50 [1] [µM]	IC50 (SH-SY5Y [2]) [µM]	Papp [19] [×10⁻⁶ cm/s]	SMILES	Activity (SH-SY5Y [2])	viability at 2 h, 100 µM [3] [%]	viability at 2 h, 50 µM [4] [%]	viability at 2 h, 25 µM [5] [%]	viability at 2 h, 12.5 µM [6] [%]	viability at 2 h, 6.3 µM [7] [%]	viability at 2 h, 3.1 µM [8] [%]	viability at 2 h, 1.6 µM [9] [%]	viability at 2 h, 0.8 µM [10] [%]	viability at 24 h, 100 µM [11] [%]	viability at 24 h, 50 µM [12] [%]	viability at 24 h, 25 µM [13] [%]	viability at 24 h, 12.5 µM [14] [%]	viability at 24 h, 6.3 µM [15] [%]	viability at 24 h, 3.1 µM [16] [%]	viability at 24 h, 1.6 µM [17] [%]	viability at 24 h, 0.8 µM [18] [%]	other results
8.4	32.3	–	COc1cc2c(cc1O)CCC(C)(CC(=O)O)O2 (centres undefined)	Dose-dependent effect	79.9	100	100	100	100	100	100	100	53.1	61	92.5	92	100	100	100	90.2	–
6.9	21.6	0.2	COc1cc2c(cc1O)CCC(C)(CC(=O)NCCc1ccc(O)c(O)c1)O2 (centres undefined)	Dose-dependent effect	100	100	100	100	100	100	100	100	58.4	77.5	79.1	84.2	98.4	94.8	88.9	100	–
